In brackets after ≈: the same amount, converted by molar mass.
How the values were obtained:
Mus musculus = details: chronic; duration: 103 weeks; oral; diet; mortality
Rattus norvegicus = details: oral
Pontoscolex corethrurus = details: acute; mortality
Daphnia magna = details: acute; mortality
[1] = chronic, duration: 103 weeks, diet, histopathology: neoplastic

**Q.** Which results are given for `CC(=O)O[C@@H]1C[C@H](C)CC[C@H]1C(C)C` (racemic) [dl-Menthyl acetate]?
**A.** NOAEL (Mus musculus): 600 mg/kg-day; NOAEL (Rattus norvegicus; [1]): 375 mg/kg-day

**Q.** For `CC(=O)OC1CCCCC1` [Cyclohexyl acetate], which LC50 (Pontoscolex corethrurus) is on record?
**A.** 1150 mg/kg

**Q.** With `CC(=O)O[C@@H]1C[C@H]2CC[C@]1(C)C2(C)C` [Isobornyl acetate] as the compound, how does the NOAEL (Rattus norvegicus; subchronic, duration: 13 weeks, gavage, M/F, organ weight) read?
**A.** 15 mg/kg-day

**Q.** Which NOAEL (Mus musculus) does the source give for `CC1CCC(C(C)C)C(O)C1` (stereo unspecified) [Menthol] here?
**A.** 600 mg/kg-day

**Q.** And the NOAEL (Rattus norvegicus; [1])?
**A.** 375 mg/kg-day

**Q.** Which results are given for `CCCCCC1C(=O)CCC1CC(=O)OC` (stereo unspecified) [Methyl dihydrojasmonate]?
**A.** LC50 (Pontoscolex corethrurus): 1430 mg/kg; NOAEL (Rattus norvegicus; subchronic, duration: 13 weeks, diet, M/F, Sprague-Dawley, no effects): 100 mg/kg-day

**Q.** How did the NOAEL (Rattus norvegicus; subchronic, duration: 13 weeks, diet, M/F, food consumption) turn out when `CC(=O)/C=C/C1C(C)=CCCC1(C)C` (stereo not drawn) [alpha-Ionone] was run?
**A.** 10 mg/kg-day

**Q.** Which LC50 (Daphnia magna) does the source give for `CC(=O)/C=C/C1C(C)=CCC(C)C1(C)C` (stereo not drawn) [alpha-Irone] here?
**A.** 0.513 µg/mL (≈ 2.49 µM)

**Q.** `CC(=O)/C=C/C1=C(C)CCCC1(C)C` [beta-Ionone] was tested. Which NOAEL (Rattus norvegicus; subchronic, duration: 13 weeks, diet, M/F, body weight) did it give?
**A.** 10 mg/kg-day
